Reference: US8735178B2, “Withanolides, probes and binding targets and methods of use thereof” (University of Kentucky Research Foundation, priority 2006, dated 2014)

Experiments:
soluble hamster vimentin = soluble hamster vimentin (Mesocricetus auratus, UniProt P02544); assay: In vitro ligand binding assay (WFA-B labelling, streptavidin-HRP blot); details: competitor 1 hour, then 0.3 or 1 μM WFA-B 1 hour
Source text: The proteins were fractionated by SDS-PAGE, blotted and biotinylated adduct was detected by streptaviding-HRP with chemiluminescence.

[1] = molecular target: T1, tetrameric soluble hamster vimentin (Mesocricetus auratus, UniProt P02544); assay: In vitro vimentin filament polymerization (transmission electron microscopy); type: biochemical; details: 25 μM, 170 mM NaCl, 1 hour at 37° C.
T1 construct: purchased Vimentin Filament Biochemistry Kit, Denver, Colo; Cytoskeleton is named
T1 sequence (P02544 2-465 limits assumed): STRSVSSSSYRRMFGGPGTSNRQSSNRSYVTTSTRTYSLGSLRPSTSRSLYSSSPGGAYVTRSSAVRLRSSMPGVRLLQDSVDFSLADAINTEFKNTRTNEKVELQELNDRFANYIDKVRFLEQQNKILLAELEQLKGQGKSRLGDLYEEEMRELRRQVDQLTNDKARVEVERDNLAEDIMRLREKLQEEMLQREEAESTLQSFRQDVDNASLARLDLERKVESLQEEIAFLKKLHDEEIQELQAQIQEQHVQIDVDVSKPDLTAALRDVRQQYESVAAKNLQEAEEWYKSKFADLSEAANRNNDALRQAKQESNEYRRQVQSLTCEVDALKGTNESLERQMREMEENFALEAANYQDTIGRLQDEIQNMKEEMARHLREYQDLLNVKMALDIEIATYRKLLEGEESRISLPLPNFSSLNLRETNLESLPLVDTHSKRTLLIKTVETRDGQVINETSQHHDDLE
Description: FIG. 3a depicts tetrameric soluble hamster vimentin polymerized in the presence of 170 mM NaCl by incubation at 37° C. for 1 hour. The protein was fixed with 0.5% glutaraldehyde, stained with uranyl acetate and observed by transmission electron microscopy.
Tetrameric hamster vimentin was subjected to in vitro filament formation assays using vendor-supplied reagents and instructions (Vimentin Filament Biochemistry Kit, Denver, Colo.). Vimentin (0.5 mg/ml) was mixed with WFA (5 μM or 25 μM), DMSO or 12D-WS (25 μM) in filament polymerization buffer (170 mM NaCl final concentration) and incubated for 1 hour at 37° C. Protein was immediately fixed in 0.5% glutarldehyde and stained with uranyl acetate and applied to copper grids for EM staining (University of Kentucky Core Microscopy and Imaging Facilities). Over 100 grids for each treatment were viewed at 80 kV on a FEI Biotwin 12 transmission electron microscope and 25 representative images were collected. The experiment was repeated in entirety.

bovine 20S proteasome = bovine 20S proteasome (Bos taurus, UniProt Q32KL2); assay: 20S proteasome enzyme kinetic assay (chymotrypsin-like activity, Suc-LLVY-AMC); type: biochemical
Description: The chymotrypsin-like activity was assayed using the fluorogenic peptide substrates Suc-Leu-Leu-Val-Tyr-AMC (Sigma-Aldrich). […] Fluorescence was quantified as arbitrary units and progression curves were plotted for each reaction as a function of time. kobserved/[I] values were obtained using PRISM program by nonlinear least squares fit of the data to the following equation: fluorescence=vst+[(v0−vs)/kobserved][1−exp(−kobserved t)], where v0 and vs are the initial and final velocities, respectively, and kobserved is the reaction rate constant. […] Reactions were performed using inhibitor concentrations that were <100-fold of those of the proteasome assayed.

[2] = tested on: embryonic fibroblast cell lines MFT-6 (Vim+/+) and MFT-16 (Vim−/−); assay: Apoptosis by flow cytometry (annexin V-FITC / propidium iodide); type: cell-based, mouse; details: 5 μM, 24 hours
Description: Referring to FIG. 4c, embryonic fibroblast cell lines derived from vimentin-deficient mice and wild-type littermates were treated with vehicle or 5 μM WFA for 24 hours. Cells were harvested and stained with annexin V-FITC and propidium iodide and extent of apoptosis assessed by flow cytometry. The fold-apoptotis for drug over vehicle-treated samples for each cell line was plotted (n=2 experiments).
To assess the apoptosis activity of WFA, embryonic fibroblast vimentin-deficient cell lines (Vim^−/−; MFT-16) and wild-type (Vim^+/+; MFT-6) cells were treated with 5 μM WFA or an equivalent amount of vehicle (DMSO) for 24 hours at 37° C.-5% CO2 conditions in complete medium. Apoptotic cells were measured by using the VYBRANT™ Apoptosis Assay Kit (Molecular Probes) according to the manufacturer's instructions. Flow cytometric analysis was conducted at the University of Kentucky Core Flow Cytometry Center.

[3] = tested on: corneal neovascularization; assay: Injury-induced corneal neovascularization assay in mice; type: in vivo, mouse; details: 2 mg/kg i.p. daily for 10 days
Source text: Since WFA exerts potent angiogenesis inhibitory activity in vivo, drug activity on de novo capillary growth in vimentin deficiency was investigated.
Vimentin homozygous-deficient mice (vim^−/−) and vimentin-heterozygous-deficient mice (vim^+/−) in the 129/Svev background were obtained from David Markovitz (University of Michigan Medical Center) and breeding colonies established at the University of Kentucky. All mice were housed in specific pathogen-free cages in designated lab animal housing facilities. Age-matched littermates were genotyped by polymerase chain reaction, as described, and vim^−/− and vim^+/+ mice were employed for corneal vascularization experiments. In brief, mice between 4-6 weeks of age were anesthetized by intraperiteoneal injection (i.p.) of ketamine and xylazine. Corneas were topically anesthetized by application of proparacain drop and 1 microliter drop of dilute 0.1 M sodium hydroxide was applied for 1 minute. […] Upon recovery from anesthesia, mice were replaced in cages and monitored by trained personnel for resumption of normal activity. […] Fluorescence was quantified by importing images in NIH ImageJ, as taught by Ambati, B. K. et al., Sustained inhibition of corneal neovascularization by genetic ablation of CCR5, Invest. […]

vimentin in HUVECs = assay: Western blot of soluble vimentin in WFA-treated HUVECs; type: cell-based, human
Description: (§1) BAECs treated with DMSO (FIGS. 3e, 3g, 3i) or 3 μM WFA (FIGS. 3f, 3h, 3j) for 18 hours were stained for vimentin using a monoclonal anti-vimentin antibody (green) and co-stained with phalloidin-rhodamine (red). The vimentin (FIGS. 3e, 3f) and phalloidin-stained images (FIGS. 3g, 3h), in fluorescence overlap, reveal the presence of numerous cytoplasmic particulate granules that co-stain for vimentin and disrupted F-actin in WFA-treated cells compared to controls (FIGS. 3i, 3j). […] FIG. 3l depicts higher concentrations and longer periods of exposure to WFA (4 hours) cause reduction in levels of the 56 kDa protein (asterisk) and increased abundance of cleavage products of vimentin (arrows).
As it became apparent that vimentin targeting by WFA may initiate signaling events leading to cellular apoptosis, the effect of WFA on soluble tetrameric vimentin was investigated. Using western blot analysis of soluble proteins from HUVECs treated with WFA, dose-dependent (above 2 μM) increases in vimentin cleavage products became detectable by 2 hours after drug treatment (FIGS. 3k and 3l).
After treatments, cells were washed in PBS and extracts having equal amounts of proteins were subjected to SDS-PAGE on 4-20% Tris-glycine gels (BioEpress) and transferred to Immun-Blot PVDF membrane (Bio-Rad) using standard techniques. […]

[4] = tested on: MCF-7 cells transfected with human vimentin cDNA; assay: Polyubiquitinated proteins in vimentin-transfected MCF-7 cells (anti-ubiquitin blot); type: cell-based; details: 2 μM, not in vector controls
Description: Employing the widely used MCF-7 vimentin-deficient model of Bar, H. et al., Forced expression of desmin and desmin mutants in cultured cells: impact of myopathic missense mutations in the central coiled-coil domain on network formation, Exp. Cell. […] MCF-7 cells that lack endogenous IF proteins were transfected with human vimentin cDNA or a vector control and after 24 hours cells were treated with either vehicle or 2 μM WFA for 1 hour. Cell lysates were prepared and equal amounts of protein subjected to SDS-PAGE and protein blots probed with anti-ubiquitin antibody. Blots were re-probed with anti-GAPDH antibody.
MCF-7 cells were transfected with a pCMV6-XL5 vector containing the human vimentin cDNA under CMV promoter according to vendor instructions (Origene). Control samples were transfected with an empty vector (PCMV6-XL4). Transfected cells were allowed to recover for 12 hours and subsequently treated with 2 μM WFA for 18 hours. Equal amounts of protein lysates were then subjected to western blotting and probed with mouse monoclonal antibody against ubiquitin proteins.

BAECs = assay: Immunostaining of vimentin and actin in BAECs; type: cell-based, bovine; details: 3 μM, 18 hours
Description: as §1
To further corroborate that vimentin aggregation by WFA treatment is associated with perturbation of the cytoskeleton structure, the drug effects in BAECs were investigated by immunostaining. […] Importantly, these vimentin particulates strongly co-stain for actin (compare FIG. 3h with FIG. 3j), exemplifying the role of the WFA-binding domain in control of cytoskeletal structure through the actin-binding activity of vimentin 2B domain.
After treatments, BAECs were washed with PBS and fixed with 4% paraformaldehyde for 5 minutes. Cells were then permeabilized with 0.1% Triton-X in PBS for 20 minutes at 4° C. and blocked for 30 minutes in 3% BSA to prevent nonspecific binding. […]

[5] = molecular target: purified hamster vimentin (Mesocricetus auratus, UniProt P02544); assay: LC-MS/MS mapping of the residue covalently modified by WFA; type: binding; details: tryptic digestion, molecular mass shift of 470
Chain of purified hamster vimentin (P02544 whole entry): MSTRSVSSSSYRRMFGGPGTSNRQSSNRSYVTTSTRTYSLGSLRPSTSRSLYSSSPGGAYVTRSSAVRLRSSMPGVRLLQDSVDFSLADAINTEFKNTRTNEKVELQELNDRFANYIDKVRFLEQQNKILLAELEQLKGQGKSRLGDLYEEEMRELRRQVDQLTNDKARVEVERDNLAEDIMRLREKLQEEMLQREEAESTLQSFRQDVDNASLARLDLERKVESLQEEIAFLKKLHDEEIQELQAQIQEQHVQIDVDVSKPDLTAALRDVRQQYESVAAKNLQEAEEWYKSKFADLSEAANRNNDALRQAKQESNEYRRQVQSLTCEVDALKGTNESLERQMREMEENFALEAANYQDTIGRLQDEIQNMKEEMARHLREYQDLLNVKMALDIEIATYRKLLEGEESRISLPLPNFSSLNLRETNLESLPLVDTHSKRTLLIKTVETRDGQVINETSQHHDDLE
Description: Next, to identify the amino acid residue(s) of vimentin covalently modified by WFA, purified hamster vimentin was incubated with WFA and the protein-ligand complexes subjected to tryptic digestion and LC-MS/MS analysis. […] A three-dimensional model of the WFA-vimentin complex was developed using x-ray crystal structures of vimentin and WFA. […] In this simulated model, the C3 and C6 carbons of WFA lie in close proximity to the cysteine residue in the vimentin A-helix (FIG. 2b), permitting a nucleophilic attack by this thiol group on the electrophilic carbon centers (FIG. 2c). Remarkably, the amino acid residues of vimentin (Gln324, Cys328 and Asp 331) that make contact with WFA (FIG. 2c) are identical from fish to mammals, as shown in the table below.

[6] = molecular target: T2, 56 kDa protein (vimentin) in HUVECs (Homo sapiens, UniProt P08670); assay: WFA-B labelling of proteins in HUVECs (streptavidin-HRP blot); type: binding; details: WFA-B 2 hours, WFA-competitive
T2 construct: host or cells: HUVECs
T2 sequence (P08670 whole entry): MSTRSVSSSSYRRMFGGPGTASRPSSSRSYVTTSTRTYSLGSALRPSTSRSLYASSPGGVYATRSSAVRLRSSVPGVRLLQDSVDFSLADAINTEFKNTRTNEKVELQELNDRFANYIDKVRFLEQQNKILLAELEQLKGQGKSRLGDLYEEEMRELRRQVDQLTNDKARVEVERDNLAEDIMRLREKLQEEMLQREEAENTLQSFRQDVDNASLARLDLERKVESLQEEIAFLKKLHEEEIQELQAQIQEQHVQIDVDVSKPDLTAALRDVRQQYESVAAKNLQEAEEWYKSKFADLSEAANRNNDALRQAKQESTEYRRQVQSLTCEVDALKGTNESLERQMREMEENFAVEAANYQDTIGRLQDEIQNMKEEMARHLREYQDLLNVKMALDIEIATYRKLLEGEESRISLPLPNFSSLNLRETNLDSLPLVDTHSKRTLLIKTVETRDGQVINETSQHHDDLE
Description: LC-MS/MS characterization of this protein identified the 56 kDa protein as vimentin (27% protein coverage), an IF protein that is abundant in mesenchymal cells. To further support that vimentin is bound by WFA-B in vivo, HUVECs were treated with WFA-B in the presence and absence of unconjugated WFA, and total cellular lysates were gel-fractionated and protein blots probed with streptavidin-HRP. […] This experiment was conducted using cells preincubated with DMSO or WFA for 30 minutes and subsequently with WFA-B for 2 hours. Soluble proteins extracted in 1% Triton X-100 were fractionated by SDS-PAGE and blotted. This blot, as well as those of FIGS. 1d and 1e, were developed with Streptavidin-HRP. Biotin label is incorporated in this 56 kDa protein in a WFA-competitive manner.
As shown in the blot of FIG. 1d, WFA-B binds vimentin in HUVECs. The blot of FIG. 1d was produced using cell cultures preincubated with DMSO (Veh) or with 5 μM WFA or 1 μM (WFA*) for 30 minutes and subsequently with 5 μM WFA-B for 2 hours.

Chain of soluble hamster vimentin (P02544 whole entry): as the sequence (P02544 whole entry) above

SMILES | in vitro binding to vimentin (soluble hamster vimentin) | effect on vimentin polymerization [1] | inhibition of the 20S proteasome's major catalytic function (bovine 20S proteasome; 10 μM) | Kobs/[I], efficiency of inactivation (bovine 20S proteasome; WFA 0.5-10 μM, epoxomicin 10-75 nM) | rate of apoptosis, wild-type cells versus vimentin-deficient cells [2] | inhibition of neovascularization ([3]; vimentin-null mice, n=10, P=0.005) | inhibition of neovascularization ([3]; wild-type mice, n=8, P=0.002) | concentration giving dose-dependent increases in vimentin cleavage products (vimentin in HUVECs; detectable by 2 hours) | levels of polyubiquitinated proteins [4] | vimentin filament phenotype (BAECs) | covalent modification of cysteine residue at position 327 [5] | effect on full-length vimentin isoforms (two-dimensional western blot) (vimentin in HUVECs; data not shown) | binding to 56 kDa protein in cells [6]
CC1=C(CO)C(=O)O[C@@H]([C@@H](C)[C@H]2CC[C@H]3[C@@H]4[C@@H]5O[C@@H]5[C@@]5(O)CC=CC(=O)[C@]5(C)[C@H]4CC[C@]23C)C1 [12-D WS] | lack of in vitro binding activity | does not disrupt vimentin polymerization |  |  |  |  |  |  |  |  |  |  | 
CC1=C(CO)C(=O)O[C@@H]([C@@H](C)[C@H]2CC[C@H]3[C@@H]4C[C@H]5O[C@]56[C@@H](O)C=CC(=O)[C@]6(C)[C@H]4CC[C@]23C)C1 [WFA, Withaferin A] |  | produces extensive filamentous aggregates | minimally inhibits | 340±80 M^−1S^−1 | 7 fold | 29% | 73% | above 2 μM | increases levels of polyubiquitinated proteins | condensation of vimentin filaments around the perinuclear region | uniquely modified by WFA |  | 
CC1=C(COC(=O)CNC(=O)CCCCCNC(=O)CCCCCNC(=O)CCCCC2SCC3NC(=O)NC32)C(=O)OC([C@@H](C)C2CCC3C4C[C@H]5O[C@]56C(O)C=CC(=O)[C@]6(C)C4CC[C@@]32C)C1 (stereo partly drawn) [WFA-B, WFA-Gly-LC-LC-biotin] | bound by WFA-B in a WFA-competitive manner |  |  |  |  |  |  |  |  |  |  | causes several full-length (˜53-56 kDa) isoforms of vimentin to disappear | binds to the 56 kDa protein in HUVECs
